Counter-ions that a name gives are not always drawn.
Tests used:
NL4-3 wt = experiment: MT4 Cell Antiviral Assay, NL4-3 wt; format: cell-based, HIV-1; settings: Human immunodeficiency virus 1, NL43, HIV MT4 Antiviral Cell Assay of Example 11
V370A = experiment: MT4 Cell Antiviral Assay, V370A; format: cell-based, HIV-1; settings: Human immunodeficiency virus 1, MT4, read-out: EC50V370A
HIV = settings: cited from earlier work

With `CC(C)C1=C2[C@H]3CC[C@@H]4[C@@]5(C)CC=C(C6=CCC(C(=O)O)CC6)C(C)(C)[C@@H]5CC[C@@]4(C)[C@]3(C)CC[C@@]2([C@@H](O)CN(CC2CCC2)C(=O)CN2CCCC2)CC1=O` (stereo partly drawn) [Example 7, 4-((3aR,5aR,5bR,7aR,11aS, 11bR,13aS)-3a-((R)-2-(N-(cyclobutylmethyl)-2-(pyrrolidin-1-yl)acetamido)-1-hydroxyethyl)-1-isopropyl-5a,5b,8,8,11a-pentamethyl-2-oxo-3,3a,4,5,5a,5b,6,7,7a,8, 11,11a,11b,12,13,13a-hexadecahydro-2H-cyclopenta[a]chrysen-9-yl)cyclohex-3-enecarboxylic acid] the EC50 (NL4-3 wt) was 5.8 nM and the EC50 (V370A) was 4.1 nM.

In the case of `C=C(C)[C@@H]1CC[C@]2(C(=O)O)CC[C@]3(C)[C@H](CC[C@@H]4[C@@]5(C)CC[C@H](OC(=O)CC(C)(C)C(=O)O)C(C)(C)[C@@H]5CC[C@]43C)[C@@H]12` [Bevirimat], the “reduced HIV viral load, mean” value (HIV; patients with trough levels >=20 μg/mL and without key baseline Gag polymorphisms at Q369, V370 or T371) is listed as 1.3 log10/mL and the “viral load reductions versus patients without Gag polymorphisms” value (HIV; users with Gag polymorphisms at Q369, V370 or T371) is listed as “significantly lower load reductions”.

`COCC(=O)N(CC1CCC1)C[C@H](O)[C@@]12CC[C@]3(C)[C@H](CC[C@@H]4[C@@]5(C)CC=C(C6=CCC(C(=O)O)CC6)C(C)(C)[C@@H]5CC[C@]43C)C1=C(C(C)C)C(=O)C2` (stereo partly drawn) [Example 6, 4-((3aR,5aR,5bR,7aR,11aS, 11bR,13aS)-3a-((R)-2-(N-(cyclobutylmethyl)-2-methoxyacetamido)-1-hydroxyethyl)-1-isopropyl-5a,5b,8,8,11a-pentamethyl-2-oxo-3,3a,4,5,5a,5b,6,7,7a,8, 11,11a,11b,12,13,13a-hexadecahydro-2H-cyclopenta[a]chrysen-9-yl)cyclohex-3-enecarboxylic acid] showed an EC50 (NL4-3 wt) of 10 nM and an EC50 (V370A) of 20.4 nM.

Work on `CC(C)C1=C2[C@H]3CC[C@@H]4[C@@]5(C)CC=C(C6=CCC(C(=O)O)CC6)C(C)(C)[C@@H]5CC[C@@]4(C)[C@]3(C)CC[C@@]2([C@@H](O)CN(CC2CC2)C(=O)CN2CCCC2=O)CC1=O` (stereo partly drawn) [Example 4, 4-((3aR,5aR,5bR,7aR,11aS, 11bR,13aS)-3a-((R)-2-(N-(cyclopropylmethyl)-2-(2-oxopyrrolidin-1-yl)acetamido)-1-hydroxyethyl)-1-isopropyl-5a,5b,8,8,11a-pentamethyl-2-oxo-3,3a,4,5,5a,5b,6,7,7a,8, 11,11a,11b,12,13,13a-hexadecahydro-2H-cyclopenta[a]chrysen-9-yl)cyclohex-3-enecarboxylic acid] yielded an EC50 (NL4-3 wt) of 7.1 nM and an EC50 (V370A) of 20.9 nM.

`CC(C)C1=C2[C@H]3CC[C@@H]4[C@@]5(C)CC=C(C6=CCC(C(=O)O)CC6)C(C)(C)[C@@H]5CC[C@@]4(C)[C@]3(C)CC[C@@]2([C@@H](O)CN(CCN(C)C)Cc2ccc(Cl)cc2)CC1=O` (stereo partly drawn) [Example 9, 4-((3aR,5aR,5bR,7aR,11aS, 11bR,13aS)-3a-((R)-2-((4-chlorobenzyl)(2-(dimethylamino)ethyl)amino)-1-hydroxyethyl)-1-isopropyl-5a,5b,8,8,11a-pentamethyl-2-oxo-3,3a,4,5,5a,5b,6,7,7a,8, 11,11a,11b,12,13,13a-hexadecahydro-2H-cyclopenta[a]chrysen-9-yl)cyclohex-3-enecarboxylic acid dihydrochloride] gave an EC50 (NL4-3 wt) of 6.8 nM and an EC50 (V370A) of 10.7 nM.

`CC(C)C1=C2[C@H]3CC[C@@H]4[C@@]5(C)CC=C(C6=CCC(C(=O)O)CC6)C(C)(C)[C@@H]5CC[C@@]4(C)[C@]3(C)CC[C@@]2([C@@H](O)CN(CC2CC2)C(=O)CN2CCCC2)CC1=O` (stereo partly drawn) [Example 3, 4-((3aR,5aR,5bR,7aR,11aS, 11bR,13aS)-3a-((R)-2-(N-(cyclopropylmethyl)-2-(pyrrolidin-1-yl)acetamido)-1-hydroxyethyl)-1-isopropyl-5a,5b,8,8,11a-pentamethyl-2-oxo-3,3a,4,5,5a,5b,6,7,7a,8, 11,11a,11b,12,13,13a-hexadecahydro-2H-cyclopenta[a]chrysen-9-yl)cyclohex-3-enecarboxylic acid] gave an EC50 (NL4-3 wt) of 3.3 nM and an EC50 (V370A) of 3.7 nM.

For `COCC(=O)N(CC1CC1)C[C@H](O)[C@@]12CC[C@]3(C)[C@H](CC[C@@H]4[C@@]5(C)CC=C(C6=CCC(C(=O)O)CC6)C(C)(C)[C@@H]5CC[C@]43C)C1=C(C(C)C)C(=O)C2` (stereo partly drawn) [Example 1, 4-((3aR,5aR,5bR,7aR,11aS, 11bR,13aS)-3a-((R)-2-(N-(cyclopropylmethyl)-2-methoxyacetamido)-1-hydroxyethyl)-1-isopropyl-5a,5b,8,8,11a-pentamethyl-2-oxo-3,3a,4,5,5a,5b,6,7,7a,8, 11,11a,11b,12,13,13a-hexadecahydro-2H-cyclopenta[a]chrysen-9-yl)cyclohex-3-enecarboxylic acid], the EC50 (NL4-3 wt) was 7.9 nM and the EC50 (V370A) was 8.9 nM.

Molecule `CC(C)C1=C2[C@H]3CC[C@@H]4[C@@]5(C)CC=C(C6=CCC(C(=O)O)CC6)C(C)(C)[C@@H]5CC[C@@]4(C)[C@]3(C)CC[C@@]2([C@@H](O)CNCC2CC2)CC1=O` (stereo partly drawn) [Example 10, 4-((3aR,5aR,5bR,7aR,11aS, 11bR,13aS)-3a-((R)-2-((cyclopropylmethyl)amino)-1-hydroxyethyl)-1-isopropyl-5a,5b,8,8,11a-pentamethyl-2-oxo-3,3a,4,5,5a,5b,6,7,7a,8, 11,11a,11b,12,13,13a-hexadecahydro-2H-cyclopenta[a]chrysen-9-yl)cyclohex-3-enecarboxylic acid] has an EC50 (NL4-3 wt) of 9.3 nM and an EC50 (V370A) of 25100 nM.

Molecule `CC(C)C1=C2[C@H]3CC[C@@H]4[C@@]5(C)CC=C(C6=CCC(C(=O)O)CC6)C(C)(C)[C@@H]5CC[C@@]4(C)[C@]3(C)CC[C@@]2([C@@H](O)CN(CC2CC2)C(=O)CN(C)C)CC1=O` (stereo partly drawn) [Example 2, 4-((3aR,5aR,5bR,7aR,11aS, 11bR,13aS)-3a-((R)-2-(N-(cyclopropylmethyl)-2-(dimethylamino)acetamido)-1-hydroxyethyl)-1-isopropyl-5a,5b,8,8,11a-pentamethyl-2-oxo-3,3a,4,5,5a,5b,6,7,7a,8, 11,11a,11b,12,13,13a-hexadecahydro-2H-cyclopenta[a]chrysen-9-yl)cyclohex-3-enecarboxylic acid] has an EC50 (NL4-3 wt) of 5.4 nM and an EC50 (V370A) of 11.2 nM.
